From patent US20130167838A1, “NASAL FORMULATION” (TEVA BRANDED PHARMACEUTICAL PRODUCTS, INC., priority 2011, published 2013)
Where a name gives a salt, the structure may show the parent alone.

What was measured:
[1] = Solubility in an HFA/ethanol formulation; type: physicochemical
Text: Azelastine has been marketed as the hydrochloride salt, but the problem is that the hydrochloride salt is not soluble in an HFA/ethanol formulation.

[2] = Stability of active ingredients in ethanol formulations with and without hydrochloric acid, stored at 60° C. for 21 days, HPLC; type: physicochemical; conditions: ethanol formulations with vs without HCl, FIG. 2
Procedure: Further formulations were prepared containing the active ingredient(s) and ethanol with and without hydrochloric acid in order to test the stability of the active ingredients. The formulations were: Formulation (i): azelastine+BDP, with acid Formulation (ii): BDP without acid Formulation (iii): BDP with acid Formulation (iv): azelastine+BDP, without acid The precise ethanol formulations were as follows: [table] The formulations were stored at 60° C. for 21 days and the amounts of the active ingredients measured at intervals during the test period. The amounts of the active ingredients were measured using HPLC with external standards of azelastine free base and BDP. The results are shown graphically in FIG. 2. […] The BDP with no acid and no azelastine was […]. However, the combination of BDP with both acid and azelastine is […].

| SMILES | solubility in an HFA/ethanol formulation [1] | stabilisation of the azelastine by including an acid (amount measured by HPLC) [2] |
| --- | --- | --- |
| CN1CCCC(n2nc(Cc3ccc(Cl)cc3)c3ccccc3c2=O)CC1 (centres unmarked) [hydrochloride salt, azelastine hydrochloride] | not soluble |  |
| CN1CCCC(n2nc(Cc3ccc(Cl)cc3)c3ccccc3c2=O)CC1 (centres unmarked) [azelastine, Azelastine] |  | some additional stabilisation |
